These results are taken from PubChem BioAssay AID624491 (Broad Institute, 2012).

This experiment concerns D54 ERlucT glycosylation luciferase reporter, luminescence, 24 h. The experiment in a line: blockers of NLG process in reporter cells – D54 ERlucT cells, luminescence, cherry-picks, dose response (AID 624491).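 Also: signal gain reflects blocked N-linked glycosylation of a luciferase reporter; actives raise luciferase signal so AC26 marks activators of the reporter.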
Turning to `CCNc1ccc(Br)cc(C(=O)/C=C/c2ccc(Cl)cc2)c1=O`, the AC26 was 6710 nM. As for `CCOC(=O)COc1cccc2c(=O)n(CC(=O)NCc3ccccc3)ccc12`, the AC26 is 2540 nM. Take `Nc1c(N(Cc2ccccc2)C(=O)COc2ccc([N+](=O)[O-])cc2)c(=O)[nH]c(=O)n1Cc1ccccc1`: the AC26 is 389 nM. Regarding `Cc1ccnc(NC(=O)CN2C(=O)NC(C)(c3ccc4ccccc4c3)C2=O)c1` (centres undefined), the AC26 was 11400 nM. As for `CN(C)CCCN1C(=O)c2cccc3c(Br)ccc(c23)C1=O`, the AC26 is 871 nM. In the case of `CN1CCN(C(=O)/C=C/c2ccc([N+](=O)[O-])o2)CC1` it was 3930 nM; in that of `Cc1ccc(S(=O)(=O)[N-]c2nc3ccccc3nc2-n2cc[n+](Cc3ccccc3)c2)cc1`, 118 nM. As to `CCOC(=O)c1nnc(-c2ccc(C)cc2)nc1Sc1ccccc1Cl`, the AC26 was 6170 nM.

In the case of `COc1ccc(NC(=O)c2nc(C)c(C3(C)CC(c4ccccc4)=NO3)s2)cc1` (centres undefined), the AC26 is 4020 nM. For `COc1ccc(S(=O)(=O)Nc2c(C(=O)O)[nH]c3ccc(OC)cc23)c(OC)c1`, the AC26 is 5750 nM. The figure for `CCOC(=O)C(C)Oc1cccc2c(=O)n(CC(=O)NCc3ccc(F)cc3)ccc12` (centres undefined) is 1720 nM. `CC1(C(=O)Nc2ccc(Cl)cc2)Cc2c(-c3cccc(C(N)=O)c3)ccnc2O1` (centres undefined): the AC26 is 15400 nM. Turning to `CC(=O)Nc1ccc(-c2ccnc3c2CC(C(=O)NCc2cccc(Cl)c2)O3)cc1` (centres undefined), the AC26 is 540 nM. For `Cc1ccc(N=Nc2c(N)nn(-c3ccccc3)c2N)cc1`, the AC26 is 602 nM. Take `CCN1Cc2c(/C=C/c3ccccc3)nc3ccc(OC)cc3c2N(c2cccc(Cl)c2)C1`: the AC26 was 14300 nM. `Cc1nn(C(C)(C)C)c(OC(=O)c2ccc3c(c2)OCO3)c1Sc1ccccc1`: the AC26 is 3070 nM. Turning to `COc1ccccc1-n1cnc2cc(NCc3ccco3)ccc21`, the AC26 was 1510 nM. Turning to `COc1cc(-c2cc3nc(NCCc4ccncc4)ccn3n2)cc(OC)c1OC`, the AC26 is 798 nM. Turning to `Cc1ccc(C(=O)N/C(=C\c2cccs2)C(=O)NCCc2c[nH]c3ccccc23)cc1C`, the AC26 was 4860 nM. On to `Cc1ccc(-c2nc3ncccc3o2)cc1NC(=O)c1ccc([N+](=O)[O-])o1`, for which the AC26 was 4010 nM. Regarding `Cc1cccn2c(=O)c3cc(C(=O)NCCN4CCOCC4)c(=N)n(CCc4ccccc4)c3nc12`, the AC26 is 8760 nM. Turning to `COc1ccc2c(c1)[C@H]1[C@H](CO2)[C@H](c2ccccc2)[C@]2(C)C(=O)Nc3ccccc3C(=O)N12`, the AC26 was 278 nM.

Take `COc1ccc(-n2c(=S)[nH]c3cc(C(=O)Nc4ccc(C)c(F)c4)ccc3c2=O)c(OC)c1`: the AC26 was 9690 nM. The figure for `Cc1ccc(C=Nc2ccccc2C(N)=O)cc1` is 2520 nM; for `CC(Oc1ccc2c(c1)c1ccnc3c4ccccc4c(=O)n2c13)C(=O)NCCN1CCOCC1` (centres undefined) it is 6140 nM; for `COc1ccc(OC)c(NS(=O)(=O)c2ccc(SC)cc2)c1` it is 7410 nM. On to `CCOc1cc(CNc2ccc3cn[nH]c3c2)ccc1OC`, for which the AC26 was 1550 nM. Turning to `CC(C)c1ccc(OCc2ccc(C(=O)N3CCCC3)o2)cc1`, the AC26 is 4230 nM. On to `Cc1cnc(NC(=O)c2cc(S(=O)(=O)N(C)C)ccc2N2CCCC2)s1`, for which the AC26 is 10.7 nM. Consider `CC(=O)c1cccc(-c2ccnc3c2CC(C(=O)NCc2cccs2)O3)c1` (centres undefined), for which the AC26 was 1070 nM. The figure for `CC(=O)Nc1sc(NC(=O)c2ccccc2)nc1-c1cccs1` is 3450 nM. Regarding `COc1cc(NC(=O)CN2c3cccc4cccc(c34)S2(=O)=O)cc(OC)c1OC`, the AC26 was 1770 nM.

Consider `O=C1NC(=O)N(c2ccccc2)C(=O)/C1=C\C=C\c1ccccc1`, for which the AC26 is 679 nM.

Turning to `CCc1cccc(NC(=O)c2cc(S(=O)(=O)N(C)C)ccc2N2CCCC2)c1`, the AC26 is 646 nM. Regarding `Cc1ccc(-c2nc(NCCCN(C)C)c3ccccc3n2)cc1`, the AC26 is 5650 nM. `Cn1cnc([N+](=O)[O-])c1Sc1nc2ccccc2[nH]1`: the AC26 was 797 nM. Take `CCc1ccc(CNC(=O)Cc2ccc(NC(=O)C3=C(C)OCCS3)cc2)cc1`: the AC26 was 352 nM.

For `COc1cc(OC)cc(C(=O)c2c(C)c(C#N)c3ccccn23)c1`, the AC26 is 1220 nM. Turning to `Cc1cc(C)n(-c2nnc3n2N=C(c2c[nH]c4ccccc24)CS3)n1`, the AC26 was 3510 nM. In the case of `CC(C)(C)OC(=O)[C@H](Cc1ccccc1)NC(=O)c1nc[nH]c1C(=O)N1CCc2ccccc2C1` it was 3820 nM; in that of `Cc1ccc(/C=N/NC(=O)c2cc(-c3cccnc3)nc3ccccc23)cc1`, 1250 nM; in that of `COCCCNc1nnc(Cc2ccc(Cl)cc2)c(=O)[nH]1`, 1050 nM. `COC(=O)c1[nH]c2cc(OC)c(OC)cc2c1/C=N/Nc1ccccc1`: the AC26 is 6360 nM. As for `CC(=O)n1cc(/C=N/NC(=O)c2sc(C)nc2C)c2ccccc21`, the AC26 is 10000 nM. In the case of `O=C(CN1C(=O)NC2(CCCCCC2)C1=O)Nc1ccc2c(c1)CCC2` it was 1970 nM; in that of `CCn1c2ccccc2c2cc(NC(=O)COC(=O)c3ccccc3F)ccc21`, 4200 nM. The figure for `COc1ccc(OC)c2nc3c(C(=O)NCCN(C)C)cccc3nc12` is 187 nM; for `Cc1cc(C)c2c(N)c3cccc(C)c3nc2n1` it is 478 nM; for `O=S(=O)([N-]c1nc2ccccc2nc1-n1cc[n+](Cc2ccccc2)c1)c1ccc(Cl)cc1` it is 101 nM.

As to `Cc1ccc(COc2ccccc2-c2cc(C(=O)N/N=C/c3cccnc3)[nH]n2)cc1`, the AC26 is 5260 nM.

As to `O=C(/C(=C\c1ccccc1)c1nc2ccccc2[nH]1)c1ccc(Cl)cc1`, the AC26 was 1000 nM. With `CC1=CC(C)[C@H](/C=N/n2c(=O)[nH]c3c([nH]c4ccc(Br)cc43)c2=O)C(C)C1` (some centres undefined), the AC26 is 3780 nM.

In the case of `Cc1noc2ncnc(Sc3ccc(Br)cc3)c12`, the AC26 was 4470 nM. Consider `CCN(CC)c1ccc(NC(=O)c2cc(OC)cc(OC)c2)c(C)c1`, for which the AC26 was 932 nM.

As for `O=C(CCl)Nc1ccc(Sc2ccc(NC(=O)CCl)cc2)cc1`, the AC26 is 667 nM. As for `COc1cc(/C=N\NC(=O)c2sc(N)nc2C)cc(OC)c1OC`, the AC26 was 3140 nM. For `CCOc1ccccc1N1CCN(C(=O)c2cc3ccccc3cc2OC)CC1`, the AC26 was 3440 nM. The figure for `COc1ccc([C@@H]2[C@@H]3C(=O)N(C(C)(C)C)C(=O)[C@@H]3[C@]3(Cc4ccccc4)C(=O)N(c4cccc(Cl)c4)C(=O)N23)cc1` is 2990 nM; for `Cc1nc([N+](=O)[O-])c(Sc2nc3ccccc3[nH]2)n1Cc1ccccc1` it is 8510 nM; for `COc1cc(/C=N/NC(=O)c2cc(-c3c(C)nn(-c4ccccc4)c3C)n[nH]2)ccc1O` it is 1390 nM. In the case of `COc1cc2c(cc1OC)CN(C(=O)c1ccc3nc[nH]c3c1)CC2` it was 6320 nM. On to `COc1ccc2[nH]c3c(N4CCC(O)(c5cccc(C(F)(F)F)c5)CC4)ncnc3c2c1`, for which the AC26 is 2740 nM.

`COc1cccc(-c2cnc3c(NC=O)cc(-c4cc(C)c(O)c(C)c4)cn23)c1`: the AC26 is 2140 nM. In the case of `COc1ccc(/C=N\NC(=O)c2ccccc2F)cc1COc1ccc(F)cc1F`, the AC26 was 3550 nM. For `O=C(CNc1cccc2ccccc12)N/N=C/C(Br)=C/c1ccccc1`, the AC26 was 17100 nM. For the compound `C[C@@]12C(=O)Nc3cc(F)ccc3C(=O)N1[C@H]1c3ccccc3OC[C@@H]1[C@@H]2c1ccccc1`, the AC26 was 1870 nM. The figure for `C=CCNc1nc2cc(-c3ccccc3C)sc2c(=O)n1C` is 2810 nM. In the case of `O=C1[C@H]2[C@@H](c3ccc(F)cc3)N3C(=O)N(c4cccc(Cl)c4)C(=O)[C@@]3(Cc3ccccc3)[C@H]2C(=O)N1C1CCCCC1`, the AC26 is 16.4 nM.

Turning to `COc1ccc(CCn2c(=N)c(C(=O)NCC3CCCO3)cc3c(=O)n4cccc(C)c4nc32)cc1OC` (centres undefined), the AC26 was 652 nM. As for `O=S(=O)([N-]c1nc2ccccc2nc1-n1cc[n+](Cc2ccccc2)c1)c1ccccc1`, the AC26 is 520 nM. The figure for `Cc1cccc(N2CCN(C(=O)c3ccncc3)CC2)c1C` is 11400 nM. Take `COc1ccccc1/C=N/NC(=O)c1cc2c(OC)c(OC)ccc2[nH]1`: the AC26 was 495 nM. In the case of `Cc1cc(-n2c(C)cc(C(=O)CCl)c2C)no1` it was 2160 nM; in that of `Cc1ccc2nsnc2c1NC(=O)c1ccc(-c2cc(Cl)ccc2Cl)o1`, 846 nM; in that of `Cc1ccc(N2C(=O)NC(=O)/C(=C\C=C\c3ccco3)C2=O)cc1C`, 875 nM. In the case of `CC(C)Oc1ccc(F)cc1-c1cc(C(=O)Nc2ccc(C(C)(C)C)cc2)[nH]n1`, the AC26 was 2040 nM.

`CC(=O)c1ccc(Nc2nc(-c3sc(C)nc3C)cs2)cc1`: the AC26 was 40.5 nM.

As to `O=C(Cn1cnc2c(NCc3ccccc3)ncnc21)NCc1ccccc1`, the AC26 was 1760 nM. Consider `COc1cc2c(cc1OC)C(c1cccs1)N(C(=O)c1cccnc1)CC2` (centres undefined), for which the AC26 was 806 nM.

For `Cc1cccc2sc(NC(=O)c3cc(S(=O)(=O)N(C)C)ccc3N3CCCC3)nc12`, the AC26 is 157 nM. `COc1ccc(/C=N/NC(=O)c2sccc2OCc2ccc(F)cc2)cc1OC`: the AC26 was 1310 nM. With `CCOc1ccc(N2CCc3c(C)nc(SC)nc32)cc1`, the AC26 is 2650 nM. For the compound `COc1ccc(S(=O)(=O)N2CCCCC2)cc1NC(=O)c1[nH]c(C)c(C(C)=O)c1C`, the AC26 is 1630 nM.

Regarding `COc1ccc(CCn2c(Br)nc3c2c(=O)[nH]c(=O)n3C)cc1`, the AC26 is 1080 nM. Consider `COc1ccc(NC(=O)COC(=O)/C=C/C(=O)OCC(=O)Nc2ccc(OC)c(Cl)c2)cc1Cl`, for which the AC26 is 16600 nM. For the compound `COc1ccc(C(=O)N2CCN(S(=O)(=O)c3ccc(C)cc3C)CC2)cc1S(=O)(=O)N1CCOCC1`, the AC26 is 5770 nM.

For the compound `CCCCCCC(=O)N(O)C1CC(=O)N(c2ccc(C)cc2)C1=O` (centres undefined), the AC26 was 3990 nM. Take `COc1ccc(CNCC(=O)Nc2ccccc2-n2cccc2)cc1`: the AC26 was 922 nM. The figure for `COc1ccc(-c2n[nH]c3c2CN(C(=O)c2ccc(OC)c(OC)c2)CC3)cc1` is 1760 nM. For `Cc1ccc(OCCNC(=O)C(=O)NCc2ccco2)cc1`, the AC26 is 6100 nM.

In the case of `Oc1cc(Nc2ccccc2)cc2cccnc12`, the AC26 was 1030 nM. As for `CCOC(=O)N1CCN(c2c(NCc3ccc(F)cc3)c(=O)c2=O)CC1`, the AC26 is 8400 nM. On to `Cc1ccc(CCC(=O)Nc2ncc(Cc3cc(Cl)ccc3Cl)s2)o1`, for which the AC26 is 476 nM.

In the case of `Cc1ccc(-c2nn3c(C)nnc3s2)cc1NCc1c(F)cccc1Cl`, the AC26 was 7650 nM.
